# Measured values as given in patent US9718835B2 (China Medical University Hospital, priority 2013, dated 2017).
# Experiments:
# [1] = target: T1, recombinant human Topoisomerase I (Homo sapiens, UniProt P11387); test: Topoisomerase I activity assay in a cell-free system; format: biochemical; conditions: purified recombinant human Topo I
# T1 construct: purchased TopoGEN
# T1 sequence (P11387 1-765): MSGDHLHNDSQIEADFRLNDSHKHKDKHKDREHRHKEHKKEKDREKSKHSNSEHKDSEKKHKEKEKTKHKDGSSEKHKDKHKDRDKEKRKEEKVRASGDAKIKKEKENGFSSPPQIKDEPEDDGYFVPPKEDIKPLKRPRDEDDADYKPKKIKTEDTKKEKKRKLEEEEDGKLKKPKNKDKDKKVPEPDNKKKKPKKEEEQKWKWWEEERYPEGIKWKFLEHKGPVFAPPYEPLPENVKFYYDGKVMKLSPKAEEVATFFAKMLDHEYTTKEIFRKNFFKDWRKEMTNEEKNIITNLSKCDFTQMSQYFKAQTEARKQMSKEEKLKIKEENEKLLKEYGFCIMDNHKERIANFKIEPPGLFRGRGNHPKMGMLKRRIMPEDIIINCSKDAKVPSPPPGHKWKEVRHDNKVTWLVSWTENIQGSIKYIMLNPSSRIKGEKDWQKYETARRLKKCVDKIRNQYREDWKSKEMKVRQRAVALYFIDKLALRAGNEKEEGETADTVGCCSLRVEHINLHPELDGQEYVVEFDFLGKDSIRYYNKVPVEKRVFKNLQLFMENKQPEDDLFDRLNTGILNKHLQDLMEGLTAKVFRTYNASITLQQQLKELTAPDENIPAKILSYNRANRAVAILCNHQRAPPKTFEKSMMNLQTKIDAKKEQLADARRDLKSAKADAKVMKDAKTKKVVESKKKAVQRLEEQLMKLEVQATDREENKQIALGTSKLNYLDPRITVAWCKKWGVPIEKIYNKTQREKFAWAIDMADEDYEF
# Method: Inhibition of Topo I activity by 9a in a cell-free system. A 1-delivative with an esterified 20-hydroxy group is expected to be activated by digestion with carboxylesterases. […] We authenticated the inhibitory effect of 9a against Topo I in a dose-dependent manner Thus, we confirmed that 9a is a new class of Topo I inhibitor.
# One unit of recombinant human Topoisomerase I enzyme (TopoGEN) was pre-incubated for 20 min at 37° C. with vehicle, 9a, 1, 3, or SN-38 in a final volume of 20 μL reaction buffer (10 mM Tris-HCl, pH 7.9, 1 mM EDTA, 150 mM NaCl, 0.1% BSA, 0.1 mM spermidine, 5% glycerol) was then incubated with 250 ng of supercoiled plasmid DNA for 20 min. The supercoiled, relaxed, or nicked DNA was separated by 1% agarose gel in 1×TAE (Tris-Acetate-EDTA) buffer. Ethidium bromide stained agarose gel was photographed using Gel Doc XR (Bio-Rad).
# A-549 (lung carcinoma) = test: Sulforhodamine B cytotoxicity assay, A-549; format: cell-based, human; conditions: Table 1; 72 h; average ± SD
# From the text: The human tumor cell lines used in this manuscript were A-549 (lung carcinoma), MDA-MB-231 (triple-negative breast cancer), DU-145 (hormone-insensitive prostate cancer), KB (originally isolated from epidermoid carcinoma of the nasopharynx), KBvin (vincristine-resistant KB subline), and HCT116 (colorectal adenocarcinoma). These cell lines were obtained from the Lineberger Comprehensive Cancer Center (UNC-CH) or from ATCC (Manassas, Va.), except KBvin, which was a generous gift of Professor Y.-C. Cheng (Yale University). All cell lines were maintained and assayed in RPMI-1640 medium containing 2 mM L-glutamine and 25 mM HEPES (HyClone), supplemented with 10% heat-inactivated fetal bovine serum (HyClone), 100 μg/mL streptomycin, 100 IU/mL penicillin, and 0.25 μg/mL amphotericin B (Cellgro) in a humidified atmosphere containing 5% CO2 in air. […] The 4-6×10^3 cells/well were cultured for 72 h with various concentrations of test compounds in 96-well plate at 37° C. […] Each assay was performed in triplicate with duplicated samples.
# [2] = tested on: human colorectal adenocarcinoma HCT116 xenograft; test: Xenograft model antitumor assay; format: in vivo, nu/nu mice; conditions: for mice showing complete regression: i.v. 7 days then i.p., n=8, 31-day study
# Method: Xenograft model antitumor assay using human colorectal adenocarcinoma cell line HCT116 was performed according to the regimen in Table 2. The 31-day study utilized four groups of mice (n=8) bearing established HCT116 xenograft with mean volumes of approximately 200 mm^3 on day one. The tumor growth and animal body weight change for each treatment group were measured three times per week (FIGS. 2 and 3). Compound 9a was administered intravenously (i.v.) for 7 days and then intraperitoneally (i.p.) at 5 and 10 mg/kg once every day (QD) to the end.
# Five- to six-week-old female nu/nu mice (National Laboratory Animal Center, Taiwan) were inoculated subcutaneously with 2×10^6 human colorectal adenocarcinoma HCT116 cells in flank. When the grafted tumor volume reached the average volume of 200 mm^3, mice were randomly divided into four groups (n=8). Vehicle control and compound 9a at 5 or 10 mg/kg were administered i.v. once a day (QD) for 7 days and then i.p. once a day to the end. As an experimental control group, 100 mg/kg of compound 3 was administered i.v. once a week (QWK) to the end. The length (L) and width (W) of graft was measured every 3 to 4 days to the end, and the tumor volume was calculated as LW^2/2. Results were evaluated statistically by Student's t-test. This study was approved by the Institutional Animal Care and Use Committee (IACUC) of the National Taiwan University (Taipei, Taiwan), and was performed according to the institutional guidelines.
# Topo II = Topo II activity assay, nuclear extracts of treated A-549 cells, catenated kDNA; format: cell-based, human
# From the text: First, we determined the effect of 9a on cell cycle distribution using flow cytometry analysis. […] Because it has been shown that 1-Topo I-DNA covalent complexes enhance the transcription-dependent degradation of Topo I via a 26S proteasome pathway,^32 the effects of 9a on the expression levels of Topo I and Topo II were investigated. […] Compound 9a acts directly on Topo I and results in the accumulation of covalent Topo I-DNA complexes followed by proteasomal Topo I degradation, which is the same effect as 1 and contributes to 9a's cytotoxicity.
# Topo I activity test was performed using an assay kit (TopoGEN) according to the manufacturer's instructions. Nuclear extracts from 9a-treated A-549 cells were incubated with supercoiled DNA (for Topo I) or catenated kDNA (for Topo II) for 30 min at 37° C. Reaction mixture was separated by is 1% agarose gel in 1×TAE buffer. The gel was stained with ethidium bromide and photographed using Gel Doc XR (Bio-Rad).
# A549 (Lung cancer) = test: cells; format: cell-based, human; conditions: Table 6; read-out: In vitro cytotoxicity A549 (Lung cancer)
compound,measurement,setting,value
CC[C@@]1(OC(=O)CNC(Cc2ccc(OC)cc2)=NS(=O)(=O)c2ccc(C)cc2)C(=O)OCc2c1cc1n(c2=O)Cc2cc3ccccc3nc2-1 [Compound 9a],Inhibition of Topo I activity (relaxation/nicking of supercoiled plasmid DNA),[1],inhibited Topo I activity
same,IC50,A-549 (lung carcinoma),0.031 ± 0.0035 µM
same,mice showing complete regression,[2]; 5 mg/kg QD,Two of eight
same,antitumor activity in vivo (tumor growth),"[2]; 5 mg/kg QD, P<0.01, Student's t-test",significant antitumor activity
same,mice showing complete regression,[2]; 10 mg/kg QD,three of eight
same,antitumor activity in vivo (tumor growth),"[2]; 10 mg/kg QD, P<0.001, Student's t-test",significant antitumor activity
same,animal body weight change,"[2]; 5 and 10 mg/kg QD, xenograft mice",no significant changes in body weight
same,Topo II decatenation of kDNA,Topo II,failed to decatenate kineoplast DNA
same,IC50,A549 (Lung cancer),0.0803 ± 0.00613 µM
